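Values below derive from 48-hour exposures of cells grown in 96-well plates, with endpoints linearly interpolated between the two concentrations bracketing the appropriate inhibition level. At the TGI there is no net growth.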
Key:
Test in all cases: NCI tumour cell line growth inhibition, 48 h
HS 578T breast = system: HS 578T breast
K-562 leukemia = system: K-562 leukemia
HL-60(TB) leukemia = system: HL-60(TB) leukemia
HCC-2998 colon = system: HCC-2998 colon
HOP-62 NSCLC = system: HOP-62 NSCLC
CCRF-CEM leukemia = system: CCRF-CEM leukemia
SF-268 CNS = system: SF-268 CNS
NCI-H522 lung = system: NCI-H522 lung
OVCAR-3 ovarian = system: OVCAR-3 ovarian
RPMI-8226 leukemia = system: RPMI-8226 leukemia
MOLT-4 leukemia = system: MOLT-4 leukemia
MDA-MB-435 = system: MDA-MB-435
MDA-MB-231 breast = system: MDA-MB-231 breast
UACC-62 melanoma = system: UACC-62 melanoma
SK-MEL-5 melanoma = system: SK-MEL-5 melanoma
SN12C renal = system: SN12C renal
SK-MEL-28 melanoma = system: SK-MEL-28 melanoma
MALME-3M melanoma = system: MALME-3M melanoma

Compound | TGI (HS 578T breast) [µM] | TGI (K-562 leukemia) [µM] | TGI (HL-60(TB) leukemia) [µM] | TGI (HCC-2998 colon) [µM] | TGI (HOP-62 NSCLC) [µM] | TGI (CCRF-CEM leukemia) [µM] | TGI (SF-268 CNS) [µM] | TGI (NCI-H522 lung) [µM] | TGI (OVCAR-3 ovarian) [µM] | TGI (RPMI-8226 leukemia) [µM] | TGI (MOLT-4 leukemia) [µM] | TGI (MDA-MB-435) [µM] | TGI (MDA-MB-231 breast) [µM] | TGI (UACC-62 melanoma) [µM] | TGI (SK-MEL-5 melanoma) [µM] | TGI (SN12C renal) [µM] | TGI (SK-MEL-28 melanoma) [µM] | TGI (MALME-3M melanoma) [µM]
COc1ccc(N(C)S(=O)(=O)c2ccccc2)cc1 | > 100 | > 100 | > 100 | > 100 | > 100 | > 100 | > 100 | > 100 | > 100 | > 100 | > 100 | > 100 | > 100 | > 100 | > 100 | > 100 | > 100 | > 100
CCOC(=O)c1ccc(Nc2nc3cc(C(F)(F)F)ccc3nc2-c2ccccc2)cc1 | 84.2 | > 100 | > 100 | 89.5 | 61.7 | > 100 | > 100 | > 100 | > 100 | > 100 | > 10 | > 100 | > 100 | 29.4 | > 100 | > 100 | > 100 | > 100
O=C(Nc1cc(C(=O)Nc2cccc(S(=O)(=O)O)c2)cc(C(=O)Nc2cccc(S(=O)(=O)O)c2)c1)c1cccc(C(=O)Nc2cc(C(=O)Nc3cccc(S(=O)(=O)O)c3)cc(C(=O)Nc3cccc(S(=O)(=O)O)c3)c2)c1 | > 100 | 58.6 | 65.5 | > 100 | > 100 | > 100 | > 100 | > 100 | > 100 | > 100 | > 100 | > 100 | > 100 | > 100 | > 100 | > 100 | > 100 | > 100
O=C1/C(=C/c2cccnc2)C(n2cccc2)c2c(Br)sc(Br)c21 (centres undefined) | 9.66 | 7.39 | 5.57 | 2.41 | 7.36 | 10.1 | 4.3 | 12.6 | 3.31 | 4.94 | 5.34 | 3.42 | 3.3 | 4.49 | 21.5 | 14.2 | 7.31 | 10.7
CSC1=C(C(=O)Nc2ccc(Cl)cc2)C(N)=NC1=O | > 100 | > 100 | > 100 | > 100 |  | > 100 | > 100 | > 100 | > 100 | > 100 | > 100 | > 100 | > 100 | > 100 | > 100 | > 100 | > 100 | > 100
N#Cc1c(-c2ccc(Cl)cc2)cc(-c2ccc(Nc3ccnc4cc(C(F)(F)F)ccc34)cc2)[nH]c1=O | > 100 | 15.6 | 35 | > 100 | > 57.7 | 11 | > 100 | > 100 | 20.6 | > 73.7 | 20.7 | 10.2 | 65.8 | 39.6 | > 53.4 | > 100 | > 34.6 | > 100
CCCCON1C[C@@H](O)C(O)[C@@H](O)C1 (some centres undefined) | > 100 | > 100 | > 100 | > 100 | > 100 | > 100 | > 100 | > 100 | > 100 | > 100 | > 100 | > 100 | > 100 | > 100 | > 100 | > 100 | > 100 | > 100
CCCCCCCC1(N=[N+]=[N-])C(=O)c2ccccc2N(C)C1=O (centres undefined) | > 100 |  | 99.1 | > 100 | > 100 | > 100 | > 100 | > 100 | > 100 | > 100 | > 100 | > 100 | > 100 | > 100 | > 100 | > 100 | > 100 | > 100
CC1=NN(C(=O)CC(=O)Nc2ccccc2C)C(=O)C1N=Nc1ccc(C(=O)O)cc1 (centres undefined) | > 100 | > 100 | > 100 | > 100 | > 100 | > 100 | > 100 | > 100 | > 100 | > 100 | > 100 | > 100 | > 100 | > 100 | > 100 | > 100 | > 100 | > 100
CN(NC(=O)c1ccco1)C1=NCCN1 | > 100 | > 100 | > 100 | > 100 | > 100 | > 100 | > 100 | > 100 | > 100 | > 100 | > 100 | > 100 | > 100 | > 100 | > 100 | > 100 | > 100 | > 100
CCc1n[nH]c(=S)n1/N=C\c1ccc(-c2ccccc2Cl)o1 | > 100 | 53.2 | 68 | 83.3 | > 100 | > 100 | > 100 | 65.8 | > 100 | 51.3 | 45.6 | 48.4 | > 100 | > 100 | 31.2 | > 100 |  | > 100
COc1cc(/C=C2\C[C@H]3[C@@H]4CC=C5C[C@@H](O)CC[C@]5(C)[C@H]4CC[C@]3(C)[C@H]2O)cc(OC)c1OC | > 100 | > 100 | 23 | > 100 | 41.3 |  | > 100 | > 100 | 88 | > 100 | 91.4 | 87.2 | 41.7 | 39.3 | 21.5 | > 100 | > 100 | > 100
COC(=O)/C=C/c1ccc2c(c1)CCC2 | > 100 | > 100 | 73.6 | > 100 | > 100 | > 100 | > 100 | > 100 | > 100 | > 100 | > 100 | > 100 | > 100 |  | > 100 |  | > 100 | > 100
COC1=C2CC(C)CC(OC)[C@@H](OC(=O)CCN)[C@H](C)/C=C(\C)C(OC(N)=O)C(OC)/C=C\C=C(/C)C(=O)NC(=CC1=O)C2=O (some centres undefined) | 16.9 |  | 0.757 | 5.69 | 15.4 | 1.49 | 26.2 | 0.658 | 8.19 | 14.5 | 2.53 | 6.96 | 7.47 | 4.34 | 15.2 | 14.2 | 5.22 | 16.3
Cc1ccc(S(=O)(=O)N2CCN(S(=O)(=O)c3ccc(C)cc3)Cc3ccccc3C2)cc1 | 96.5 | > 100 | > 100 | > 100 | 51.5 | > 100 | > 100 | 95 | > 100 | > 100 | > 100 | > 100 | > 100 | 36.7 | > 100 | > 100 | > 100 | > 100
O=C(O)CN1CCNCCN(CP(=O)(O)O)CC1 | > 100 | > 100 | 8.41 | > 100 | > 100 | > 100 | > 100 | > 26.8 | > 100 | > 100 | > 100 | > 100 | > 100 | > 100 | > 66.5 | > 100 | > 100 | > 100
O=C(O)CNC(=O)CO/N=C1/C(c2c(O)[nH]c3ccccc23)=Nc2ccccc21 | > 100 | > 100 | > 100 | > 100 | 87.3 | > 100 | > 100 | > 100 | > 100 | > 100 | > 100 | > 100 | > 100 | > 100 | > 100 | > 100 | > 100 | > 100
Cc1ccc([N+](=O)[O-])c2c(NCCNC(=O)Cn3ccnc3[N+](=O)[O-])ccnc12 | > 100 | > 100 | > 100 | > 100 | 48.7 | > 100 | > 100 | 38 | 52.6 | > 100 | > 100 | > 100 | > 100 | > 100 | > 100 | > 100 | > 100 | 89.1
CC1(c2ccc(F)cc2)CC(c2ccc(F)cc2)=C(C#N)C(=C(C#N)C#N)N1 (centres undefined) | 64.1 | 38.1 | 30.7 | 28.2 | 38.6 | 64.5 | 37 |  | 19.4 | > 100 | 34.8 | 32 | 43.9 | 28.1 | 28.5 | 34.5 | 47.3 | 37.2
COc1cc(OC)cc(Oc2nc3ccccc3nc2C(=O)O)c1 | > 100 | > 100 | > 100 | > 100 | > 100 | > 100 | > 100 | > 100 | > 100 | > 100 | > 100 | > 100 | > 100 | > 100 | > 100 |  | > 100 | > 100
C=CCc1cc(-c2cc(CC=C)c(O)c(CN(CCCl)CCCl)c2)cc(CN(CCCl)CCCl)c1O | > 100 | > 100 | > 100 | 29.2 | 43.5 | > 100 | 47.8 | 27.3 | 36.2 | > 100 | > 100 | 31.1 | 45.2 | 28.9 | 32.7 | 27.7 | 40.2 | 42.6
